Experimental data as given in patent publication US12667572B2, “Tricyclic compounds useful in the treatment of cancer, autoimmune and inflammatory disorders” (SCHRÖDINGER, INC., priority 2021, dated 2026).

target: T1, full-length MALT1 protein His-MALT1(1-824) (Homo sapiens, UniProt Q9UDY8); experiment: MALT1 protease assay, Assay 2 (1 nM MALT1, Ac-LRSR-AMC substrate); assay type: biochemical; settings: 1 nM MALT1, 50 μM Ac-LRSR-AMC, 2 h pre-incubation, 8 hr incubation at RT
T1 construct: full-length MALT1 protein His-MALT1(1-824); His (N); made in house; host or cells: baculovirus-infected insect cells
T1 sequence (Q9UDY8 1-824): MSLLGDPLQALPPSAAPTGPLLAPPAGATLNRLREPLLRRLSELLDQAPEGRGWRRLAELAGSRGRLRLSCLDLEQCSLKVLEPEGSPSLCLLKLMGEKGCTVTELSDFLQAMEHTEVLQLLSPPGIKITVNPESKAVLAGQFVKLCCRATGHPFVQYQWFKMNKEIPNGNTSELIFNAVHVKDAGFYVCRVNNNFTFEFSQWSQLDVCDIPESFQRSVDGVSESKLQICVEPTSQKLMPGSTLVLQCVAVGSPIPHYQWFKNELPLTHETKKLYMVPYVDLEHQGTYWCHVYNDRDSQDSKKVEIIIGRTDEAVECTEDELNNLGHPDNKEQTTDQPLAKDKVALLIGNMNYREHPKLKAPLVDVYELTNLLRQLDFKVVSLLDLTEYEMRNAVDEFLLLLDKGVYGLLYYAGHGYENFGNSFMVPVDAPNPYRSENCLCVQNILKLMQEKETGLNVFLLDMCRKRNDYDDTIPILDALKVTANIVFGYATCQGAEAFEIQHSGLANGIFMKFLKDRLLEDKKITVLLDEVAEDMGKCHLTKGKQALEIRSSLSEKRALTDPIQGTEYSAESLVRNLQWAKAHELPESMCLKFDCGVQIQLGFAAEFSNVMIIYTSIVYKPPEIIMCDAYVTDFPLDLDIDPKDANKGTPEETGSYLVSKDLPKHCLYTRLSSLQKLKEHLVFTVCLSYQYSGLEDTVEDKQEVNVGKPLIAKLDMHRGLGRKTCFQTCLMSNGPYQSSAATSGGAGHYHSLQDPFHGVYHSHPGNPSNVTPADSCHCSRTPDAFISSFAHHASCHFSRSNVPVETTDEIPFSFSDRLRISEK
Procedure: MALT1 protease activity was assessed in an in vitro assay using a tetrapeptide as substrate and full-length MALT1 protein His-MALT1(1-824) purified from baculovirus-infected insect cells. The tetrapeptide substrate is Ac-LRSR-AMC (SM Biochemicals) with Km measured at around 100 μM.
The final assay buffer includes 1 nM (Assay 2) or 2 nM (Assay 1) of MALT1 full-length protein, 50 μM Ac-LRSR-AMC substrate, 50 mM Tris pH 7.5, 600 mM Sodium Citrate, 1 mM DTT, 1 mM EDTA, and 0.05% BSA in 384-well plate format using black microtiter square well plates (Optiplate 384-F, Perkin Elmer).
Test compounds were dissolved in 100% DMSO at stock of 10 mM, with final DMSO concentration 0.1%. Test compounds were pre-incubated with MALT1 protein for 2 h at room temperature. Substrate was added after the pre-incubation and fluorescence signal was measured using Envision at excitation 355 nm and emission 460 nm after 8 hr incubation at RT. Increase in the assay signal was linear over this period and proportional with increase in the enzyme content.
The fluorescence units were transformed to percentage of remaining activity by using the high control (HC, median of fluorescence signal from wells containing MALT1 protein, substrate, and DMSO) and low control (LC, median of fluorescence signal from wells with substrate only) with the formula below: […]
IC50 and Hill coefficients were obtained using Graph Pad Prism (Graph Pad software, Inc, USA) with non-linear regression analysis.

| Structure (SMILES) | IC50 [nM] |
| --- | --- |
| CC(C)(O)c1ncc(NC(=O)[C@@H]2CC3(CCC3)c3c2cnc2cc(F)nn32)cc1Cl (single isomer, unassigned) [Example 104, N-(5-chloro-6-(2-hydroxypropan-2-yl)pyridin-3-yl)-2′-fluoro-6′,7′-dihydrospiro[cyclobutane-1,8′-cyclopenta[e]pyrazolo[1,5-a]pyrimidine]-6′-carboxamide] | ≥ 1000 |
| CC1(C)C[C@@H](C(=O)Nc2cnc(-n3nccn3)c(Cl)c2)c2cnn3cc(C(F)F)nc3c21 (single isomer, unassigned) [Example 202, N-(5-chloro-6-(2H-1,2,3-triazol-2-yl)pyridin-3-yl)-2-(difluoromethyl)-9,9-dimethyl-8,9-dihydro-7H-cyclopenta[d]imidazo[1,2-b]pyridazine-7-carboxamide] | 100 to 1000 |
| CC1(C)C[C@H](C(=O)Nc2cc(C(F)F)c(-c3ncco3)c(=O)[nH]2)c2cnc3cc(Cl)nn3c21 (single isomer, unassigned) [Example 58, 2-chloro-N-(4-(difluoromethyl)-5˜(oxazol-2-yl)-6-oxo-1,6-dihydropyridin-2-yl)-8,8-dimethyl-7,8-dihydro-6H-cyclopenta[e]pyrazolo[1,5-a]pyrimidine-6-carboxamide] | 10 to 100 |
| CC1(C)CC(C(=O)Nc2cnc(OC(F)F)c(C#N)c2)c2cnc3cc(Cl)nn3c21 (single isomer, unassigned) [Example 78, 2-chloro-N-(5-cyano-6-(difluoromethoxy)pyridin-3-yl)-8,8-dimethyl-7,8-dihydro-6H-cyclopenta[e]pyrazolo[1,5-a]pyrimidine-6-carboxamide] | 100 to 1000 |
| CC1(C)CC(C(=O)Nc2cnc(-c3nnnn3C3COC3)c(Cl)c2)c2cnc3cc(Cl)nn3c21 (stereo not shown) [Example 163, 2-chloro-N-(5-chloro-6-(1-(oxetan-3-yl)-1H-tetrazol-5-yl)pyridin-3-yl)-8,8-dimethyl-7,8-dihydro-6H-cyclopenta[e]pyrazolo[1,5-a]pyrimidine-6-carboxamide] | 100 to 1000 |
| CC1(C)C[C@@H](C(=O)Nc2cnc(OC(F)F)c(C#N)c2)c2cnc3cc(C(F)F)nn3c21 (single isomer, unassigned) [Example 125, N-(5-cyano-6-(difluoromethoxy)pyridin-3-yl)-2-(difluoromethyl)-8,8-dimethyl-7,8-dihydro-6H-cyclopenta[e]pyrazolo[1,5-a]pyrimidine-6-carboxamide] | ≥ 1000 |
| CC1(C)CC(C(=O)Nc2cnc(-n3nccn3)c(Cl)c2)c2cnc3c(F)cnn3c21 (single isomer, unassigned) [Example 100, N-(5-chloro-6-(2H-1,2,3-triazol-2-yl)pyridin-3-yl)-3-fluoro-8,8-dimethyl-7,8-dihydro-6H-cyclopenta[e]pyrazolo[1,5-a]pyrimidine-6-carboxamide] | 100 to 1000 |
| Cc1cc(NC(=O)C2CC(C)(C)c3c2cnc2cc(F)nn32)cnc1N1CCC1 (stereo not shown) [Example 179, N-(6-(azetidin-1-yl)-5-methylpyridin-3-yl)-2-fluoro-8,8-dimethyl-7,8-dihydro-6H-cyclopenta[e]pyrazolo[1,5-a]pyrimidine-6-carboxamide] | ≥ 1000 |
| Cc1cc2c(F)cc3c(n2n1)C(C)(C)CC3C(=O)Nc1cnc(-n2nccn2)c(Cl)c1 (stereo not shown) [Example 171, N-(5-chloro-6-(2H-1,2,3-triazol-2-yl)pyridin-3-yl)-4-fluoro-2,8,8-trimethyl-7,8-dihydro-6H-cyclopenta[e]pyrazolo[1,5-a]pyridine-6-carboxamide] | 10 to 100 |
| CC1(C)C[C@@H](C(=O)Nc2cnc(-n3nccn3)c(C#N)c2)c2cnn3cc(C(F)F)nc3c21 (single isomer, unassigned) [Example 196, N-(5-cyano-6-(2H-1,2,3-triazol-2-yl)pyridin-3-yl)-2-(difluoromethyl)-9,9-dimethyl-8,9-dihydro-7H-cyclopenta[d]imidazo[1,2-b]pyridazine-7-carboxamide] | 100 to 1000 |
| C[C@H](O)c1cnn(-c2ncc(NC(=O)[C@@H]3CC4(CCC4)c4c3cnc3cc(Cl)nn43)cc2Cl)n1 (single isomer, unassigned) [Example 159] | ≥ 1000 |
| CC1(C)CC(C(=O)Nc2cnc(OC(F)F)c(C#N)n2)c2cnc3cc(F)nn3c21 (single isomer, unassigned) [Example 86, N-(6-cyano-5-(difluoromethoxy)pyrazin-2-yl)-2-fluoro-8,8-dimethyl-7,8-dihydro-6H-cyclopenta[e]pyrazolo[1,5-a]pyrimidine-6-carboxamide] | ≥ 1000 |
| N#Cc1cc(NC(=O)C2CC3(CC3)c3c2cnc2cc(F)nn32)cnc1OC(F)F (stereo not shown) [Example 82, N-(5-cyano-6-(difluoromethoxy)pyridin-3-yl)-2-fluoro-6,7-dihydrospiro[cyclopenta[e]pyrazolo[1,5-a]pyrimidine-8,1′-cyclopropane]-6-carboxamide] | 10 to 100 |
| CC1(C)CC(C(=O)Nc2cnc(N3CCCC3=O)c(Cl)c2)c2cnc3cc(F)nn3c21 (stereo not shown) [Example 175, N-(5-chloro-6-(2-oxopyrrolidin-1-yl)pyridin-3-yl)-2-fluoro-8,8-dimethyl-7,8-dihydro-6H-cyclopenta[e]pyrazolo[1,5-a]pyrimidine-6-carboxamide] | ≥ 1000 |
| C[C@@]1(C(F)(F)F)C[C@@H](C(=O)Nc2cnc(-n3nccn3)c(Cl)c2)c2cnc3cc(F)nn3c21 (single isomer, unassigned) [Example 186] | 100 to 1000 |
| CC1(C)CC(C(=O)Nc2ccnc(C(F)(F)F)c2)c2cnc3cc(C(F)F)nn3c21 (single isomer, unassigned) [Example 99, 2-(difluoromethyl)-8,8-dimethyl-N-(2-(trifluoromethyl)pyridin-4-yl)-7,8-dihydro-6H-cyclopenta[e]pyrazolo[1,5-a]pyrimidine-6-carboxamide] | 100 to 1000 |
| CC(C)(O)c1ncc(NC(=O)[C@H]2CC3(CCC3)c3c2cnc2cc(F)nn32)cc1C(F)(F)F (single isomer, unassigned) [Example 152, 2′-fluoro-N-(6-(2-hydroxypropan-2-yl)-5-(trifluoromethyl)pyridin-3-yl)-6′,7′-dihydrospiro[cyclobutane-1,8′-cyclopenta[e]pyrazolo[1,5-a]pyrimidine]-6′-carboxamide] | 100 to 1000 |
| CC1(C)C[C@@H](C(=O)Nc2ccnc(C(F)(F)F)c2)c2cnc3cc(C(F)F)nn3c21 (single isomer, unassigned) [Example 98, 2-(difluoromethyl)-8,8-dimethyl-N-(2-(trifluoromethyl)pyridin-4-yl)-7,8-dihydro-6H-cyclopenta[e]pyrazolo[1,5-a]pyrimidine-6-carboxamide] | ≥ 1000 |
| Cc1cc(NC(=O)[C@@H]2CC(C)(C)c3c2cnc2cc(F)nn32)cnc1-n1nccn1 (single isomer, unassigned) [Example 182] | ≥ 1000 |
| CC1(C)CC(C(=O)Nc2cnc(OC(F)F)c(Cl)c2)c2cnc3cc(Cl)nn3c21 (single isomer, unassigned) [Example 67, 2-chloro-N-(5-chloro-6-(difluoromethoxy)pyridin-3-yl)-8,8-dimethyl-7,8-dihydro-6H-cyclopenta[e]pyrazolo[1,5-a]pyrimidine-6-carboxamide] | 100 to 1000 |
| CC1(C)CC(C(=O)Nc2cnc(C(=O)NC3CC3)c(C(F)(F)F)c2)c2cnc3cc(Cl)nn3c21 (stereo not shown) [Example 112, 2-chloro-N-(6-(cyclopropylcarbamoyl)-5˜(trifluoromethyl)pyridin-3-yl)-8,8-dimethyl-7,8-dihydro-6H-cyclopenta[e]pyrazolo[1,5-a]pyrimidine-6-carboxamide] | 100 to 1000 |
| CC1(C)CC(C(=O)Nc2cnc(C(=O)N3CC(F)(F)C3)c(C(F)(F)F)c2)c2cnc3cc(Cl)nn3c21 (stereo not shown) [Example 164, 2-chloro-N-(6-(3,3-difluoroazetidine-1-carbonyl)-5˜(trifluoromethyl)pyridin-3-yl)-8,8-dimethyl-7,8-dihydro-6H-cyclopenta[e]pyrazolo[1,5-a]pyrimidine-6-carboxamide] | 100 to 1000 |
